Laboratory results as given in ChEMBL document CHEMBL5678802, “Small-molecule p21-activated kinase inhibitor PF-3758309 is a potent inhibitor of oncogenic signaling and tumor growth” (Proc Natl Acad Sci U S A, 2010).
Activity calls are given as the source filed them. The rule behind the calls is not given here.

Legend:
[1] = molecular target: T1, Serine/threonine-protein kinase PAK 4 (Homo sapiens, UniProt O96013); test: Inhibition of N-terminal 6His-tagged human recombinant PAK4 kinase domain (300 to 591 residues) using EVPRRKSLVGTPYWM peptide as substrate assessed as inhibition constant in presence of ATP by biochemical assay
T1 sequence (O96013 whole entry, the tested form may be a part): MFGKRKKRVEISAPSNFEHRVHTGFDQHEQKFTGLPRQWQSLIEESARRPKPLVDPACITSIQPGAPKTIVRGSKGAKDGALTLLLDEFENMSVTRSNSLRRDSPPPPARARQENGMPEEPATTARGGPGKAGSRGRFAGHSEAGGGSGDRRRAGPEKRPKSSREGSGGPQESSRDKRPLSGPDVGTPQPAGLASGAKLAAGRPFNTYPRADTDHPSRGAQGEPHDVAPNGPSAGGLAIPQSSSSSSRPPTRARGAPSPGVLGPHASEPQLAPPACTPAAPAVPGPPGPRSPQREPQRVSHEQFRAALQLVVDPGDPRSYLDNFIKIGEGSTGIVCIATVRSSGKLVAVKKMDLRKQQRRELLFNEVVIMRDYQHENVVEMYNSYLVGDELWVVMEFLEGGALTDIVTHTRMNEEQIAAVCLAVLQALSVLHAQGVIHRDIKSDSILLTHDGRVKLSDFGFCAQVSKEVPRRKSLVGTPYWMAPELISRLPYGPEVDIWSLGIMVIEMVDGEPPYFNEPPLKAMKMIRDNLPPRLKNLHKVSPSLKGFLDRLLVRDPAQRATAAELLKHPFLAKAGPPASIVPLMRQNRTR

[2] = molecular target: T1, Serine/threonine-protein kinase PAK 4; test: Inhibition of PAK4 Kinase domain (291 to 591 residues) (unknown origin) transfected in TR-293-KDG cells using GEFH1 as substrate assessed as inhibition of PAK4-dependent phosphorylation of GEFH1 at S810 residue incubated for 3 hrs by ELISA; type: cell-based
HCT-116 [3] = test: Effect on phosphorylated PAK4 level in human HCT-116 cells at 1 uM incubated for 15 mins by Western blot analysis; type: functional, cell-based
HCT-116 [4] = test: Effect on phosphorylated GEF-H1 level in human HCT-116 cells at 1 uM incubated for 15 mins by Western blot analysis; type: functional, cell-based

Ki [1] [µM] | IC50 [2] [µM] | Structure (SMILES) | inhibition (HCT-116 [3]) | Activity (HCT-116 [4])
52 | 10 | C[C@@H]1CN(C(=O)N2Cc3c(NC(=O)c4ccccn4)n[nH]c3C2(C)C)[C@@H](C)CN1CC1CCOCC1 |  | 
 |  | COc1ccc(C2=NC(c3ccc(Cl)cc3)C(c3ccc(Cl)cc3)N2C(=O)N2CCNC(=O)C2)c(OC(C)C)c1 (centres undefined) | inactive | inactive
